Experimental findings from ChEMBL document CHEMBL5325408, “Design, synthesis, and biological activity studies on benzimidazole derivatives targeting myeloperoxidase” (Eur J Med Chem, 2023) are described below.

Assay [1] concerns the target T1, Myeloperoxidase (Homo sapiens) (UniProt P05164).
T1 sequence (whole entry): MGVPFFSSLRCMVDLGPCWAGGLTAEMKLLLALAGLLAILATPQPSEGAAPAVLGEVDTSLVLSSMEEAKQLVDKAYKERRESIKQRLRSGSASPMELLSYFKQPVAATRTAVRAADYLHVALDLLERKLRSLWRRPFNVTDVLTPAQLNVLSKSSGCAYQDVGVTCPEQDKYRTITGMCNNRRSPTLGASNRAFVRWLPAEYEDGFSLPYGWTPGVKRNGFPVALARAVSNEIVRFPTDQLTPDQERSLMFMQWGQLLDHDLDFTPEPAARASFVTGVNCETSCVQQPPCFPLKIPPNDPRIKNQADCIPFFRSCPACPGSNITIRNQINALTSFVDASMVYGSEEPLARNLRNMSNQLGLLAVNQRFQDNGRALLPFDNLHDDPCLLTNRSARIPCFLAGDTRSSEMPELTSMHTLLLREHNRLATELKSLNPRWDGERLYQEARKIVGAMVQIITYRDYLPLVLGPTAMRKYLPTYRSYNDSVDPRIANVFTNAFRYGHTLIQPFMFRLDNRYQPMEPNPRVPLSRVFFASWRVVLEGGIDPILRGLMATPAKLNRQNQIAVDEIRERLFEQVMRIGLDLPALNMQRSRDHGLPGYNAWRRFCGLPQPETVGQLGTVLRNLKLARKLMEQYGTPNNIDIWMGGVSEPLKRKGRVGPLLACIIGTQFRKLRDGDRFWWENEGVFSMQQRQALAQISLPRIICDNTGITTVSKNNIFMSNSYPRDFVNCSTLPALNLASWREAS
Put plainly: Inhibition of human MPO using taurine as substrate assessed as reduction in substrate chlorination at 20 uM incubated for 30 mins by taurine-chloramine assay relative to control.

The target of assay [2] is T2, Myeloperoxidase (Homo sapiens, UniProt P05164).
T2 sequence (P05164 whole entry): T1 sequence (whole entry)
As to the kind of experiment: Inhibition of human MPO using taurine as substrate assessed as reduction in substrate chlorination incubated for 30 mins by taurine-chloramine assay.

In assay [3] the target is T1, Myeloperoxidase (Homo sapiens). As to the kind of experiment: Inhibition of human MPO peroxidase activity at 100 uM incubated in presence of H2O2 by amplex red assay relative to control.
The nature of assay [4]: Antioxidant activity assessed as HOCl scavenging activity at 100 uM incubated for 10 mins in presence of TNB and taurine by absorbance based assay relative to control. Format: functional.
Assay [5] deals with T2, Myeloperoxidase. Put plainly: Inhibition of human MPO peroxidase activity incubated in presence of H2O2 by amplex red assay.

One may read the inhibition as how much of the control response was suppressed. One may read the IC50 as the point on the concentration scale where inhibition reaches its midpoint.

In the case of `COc1ccc(NC(=O)CSc2nc3ccccc3[nH]2)cc1`, in assay [1], the inhibition is 50%.
On to `O=C(Cn1c(=S)[nH]c2ccccc21)Nc1ccccc1Cl`, for which the inhibition is 89.4% in assay [1] and 47.6% in assay [3]. Further, at Myeloperoxidase [2], the IC50 was 6.67 µM. For the same molecule, the Activity in assay [4] was found to be 5.47%.
On to `O=C(Cn1c(=S)[nH]c2ccccc21)Nc1ccccc1`, for which the figures for the inhibition in assay [1] and in assay [3] were 91.9% and 57.5%, respectively. Also, the figures for the IC50 at Myeloperoxidase [2] and at Myeloperoxidase [5] were 5.64 µM and 95.4 µM, respectively.
Consider `O=C(Cn1c(=S)[nH]c2ccccc21)Nc1ccc([N+](=O)[O-])cc1`, for which, in assay [1], the inhibition stood at 61.4%.
Regarding `O=C(Cn1c(Cl)nc2ccccc21)N1CCOCC1`, the inhibition in assay [1] turned out to be 32.7%.
On to `Cc1ccc(NC(=O)Cn2c(Cl)nc3ccccc32)cc1`, for which, in assay [1], the inhibition worked out at 36.5%.
Turning to `Cc1cccc(NC(=O)Cn2c(=S)[nH]c3ccccc32)c1`, the inhibition in assay [1] was 91.4%; in assay [3], 26.7%. The IC50 on Myeloperoxidase [2] was 3.86 µM. Also, the Activity in assay [4] worked out at 6.79%.
Consider `O=C(Cn1c(Cl)nc2ccccc21)Nc1ccccc1[N+](=O)[O-]`, for which the inhibition in assay [1] is 31.8%.
Take `O=C(Cn1c(=S)[nH]c2ccccc21)N1CCCCC1`: the inhibition in assay [1] is 58.2%.
As for `O=C(CSc1nc2ccccc2[nH]1)Nc1ccccc1[N+](=O)[O-]`, in assay [1], the inhibition came out at 48.5%.
For `O=C(Cn1c(=S)[nH]c2ccccc21)Nc1cccc(Cl)c1`, the inhibition amounted to 75.7% in assay [1] and 29.8% in assay [3]. The IC50 at Myeloperoxidase [2] came out at 9.44 µM. For the same molecule, the Activity in assay [4] was 1.04%.
Turning to `O=C(Cn1c(Cl)nc2ccccc21)Nc1cccc(Cl)c1`, in assay [1], the inhibition was 67.8%.
The same measure, in the same setting: the same measure for `COc1cccc(NC(=O)Cn2c(Cl)nc3ccccc32)c1`: 46.6%; for `O=C(Cn1c(Cl)nc2ccccc21)Nc1ccc(Cl)cc1`: 63.8%; for `O=C(Cn1c(Cl)nc2ccccc21)N1CCCCC1`: 29.1%.
As to `O=C(CSc1nc2ccccc2[nH]1)Nc1cccc([N+](=O)[O-])c1`, the inhibition in assay [1] was found to be 62.3%.
For the molecule `O=C(CSc1nc2ccccc2[nH]1)NCc1ccccc1`, the inhibition in assay [1] was 63.6%.
Still for that read-out and setting: the same measure for `CCOC(=O)Cn1c(=S)[nH]c2ccccc21`: 51.3%.
For `Cc1ccc(NC(=O)CSc2nc3ccccc3[nH]2)cc1`, the inhibition in assay [1] came out at 73%; in assay [3] it was 0%. Also, the IC50 on Myeloperoxidase [2] was 8.51 µM.
With `COc1cccc(NC(=O)Cn2c(=S)[nH]c3ccccc32)c1`, the inhibition in assay [1] worked out at 65.5%.
Regarding `COc1ccc(NC(=O)Cn2c(=S)[nH]c3ccccc32)cc1`, the inhibition in assay [1] was determined as 81.7%; in assay [3] it was 30.5%. Also, the IC50 at Myeloperoxidase [2] amounted to 4.08 µM. In assay [4], the Activity came to 2.83%.
`O=C(CSc1nc2ccccc2[nH]1)Nc1ccccc1`: the inhibition in assay [1] came out at 50%.
Consider `O=C(Cn1c(=S)[nH]c2ccccc21)Nc1ccccc1[N+](=O)[O-]`, for which the inhibition in assay [1] came to 70.2%; in assay [3], 22.6%. At Myeloperoxidase [2], the IC50 was found to be 5.63 µM.
On to `O=C(CSc1nc2ccccc2[nH]1)N1CCOCC1`, for which, in assay [1], the inhibition came to 35.9%.
The same measure, in the same setting: in the case of `Cc1ccccc1NC(=O)CSc1nc2ccccc2[nH]1` it was 44.9%; in that of `Cc1ccc(NC(=O)Cn2c(S)nc3ccccc32)cc1`, 41.1%.
On the same count and under the same terms, in the case of `O=C(CSc1nc2ccccc2[nH]1)Nc1cccc(Cl)c1` it was 56.1%; in that of `O=C(CSc1nc2ccccc2[nH]1)N1CCCCC1`, 32%.
As for `O=C(CSc1nc2ccccc2[nH]1)Nc1ccc(Cl)cc1`, the inhibition in assay [1] stood at 52.6%.
As for `COc1cc(NC(=O)Cn2c(Cl)nc3ccccc32)cc(OC)c1OC`, in assay [1], the inhibition worked out at 35.7%.
On to `CCOC(=O)Cn1c(Cl)nc2ccccc21`, for which the inhibition in assay [1] was found to be 33.3%.
Consider `O=C(Cn1c(=S)[nH]c2ccccc21)Nc1ccc(Cl)cc1`, for which the inhibition in assay [1] was determined as 85.3%; in assay [3], 21.7%. In addition, the IC50 at Myeloperoxidase [2] was 7.76 µM. In assay [4], the Activity was found to be 5.85%.
Take `Cc1ccccc1NC(=O)Cn1c(Cl)nc2ccccc21`: the inhibition in assay [1] came to 28.5%.
On the same count and under the same terms, in the case of `Cc1cccc(NC(=O)Cn2c(Cl)nc3ccccc32)c1` it was 34.8%; in that of `COc1cc(NC(=O)CSc2nc3ccccc3[nH]2)cc(OC)c1OC`, 68.9%; in that of `O=C(CSc1nc2ccccc2[nH]1)Nc1ccc([N+](=O)[O-])cc1`, 62.1%.
For `O=C(Cn1c(=S)[nH]c2ccccc21)NCc1ccccc1`, the inhibition in assay [1] came to 95.3%; in assay [3] it was 53.3%. Moreover, the IC50 was 4.33 µM on Myeloperoxidase [2] and 97.3 µM at Myeloperoxidase [5].
Regarding `O=C(Cn1c(Cl)nc2ccccc21)Nc1ccccc1`, the inhibition in assay [1] came out at 27.9%.
On to `COc1cccc(NC(=O)CSc2nc3ccccc3[nH]2)c1`, for which the inhibition in assay [1] was determined as 61.4%.
Still for that read-out and setting: in the case of `O=C(Cn1c(=S)[nH]c2ccccc21)NO` it was 51.2%; in that of `O=C(Cn1c(=S)[nH]c2ccccc21)Nc1cccc([N+](=O)[O-])c1`, 61.9%.
As for `O=C(Cn1c(Cl)nc2ccccc21)NCc1ccccc1`, in assay [1], the inhibition came out at 24.9%.
Consider `COc1ccccc1NC(=O)Cn1c(Cl)nc2ccccc21`, for which, in assay [1], the inhibition worked out at 39.3%.
Turning to `O=C(CSc1nc2ccccc2[nH]1)Nc1ccccc1Cl`, the inhibition in assay [1] was 54.4%.
On to `O=C(Cn1c(Cl)nc2ccccc21)Nc1ccc([N+](=O)[O-])cc1`, for which the inhibition in assay [1] was determined as 54%.
Turning to `COc1ccccc1NC(=O)Cn1c(=S)[nH]c2ccccc21`, the figures for the inhibition in assay [1] and in assay [3] were 94.3% and 19.1%, respectively. In addition, the IC50 at Myeloperoxidase [2] was found to be 3.72 µM. Besides, in assay [4], the Activity was 8.77%.
With `Cc1ccccc1NC(=O)Cn1c(=S)[nH]c2ccccc21`, the inhibition in assay [1] came to 93%; in assay [3] it was 24%. In addition, the IC50 at Myeloperoxidase [2] came to 4.26 µM. For the same molecule, the Activity in assay [4] turned out to be 0.94%.
For the molecule `O=C(Cn1c(Cl)nc2ccccc21)Nc1ccccc1Cl`, the inhibition in assay [1] stood at 21.9%.
Same read-out and setting: in the case of `COc1cc(NC(=O)Cn2c(=S)[nH]c3ccccc32)cc(OC)c1OC` it was 62.6%.
Consider `COc1ccc(NC(=O)Cn2c(Cl)nc3ccccc32)cc1`, for which, in assay [1], the inhibition came out at 36.9%.
With `NNC(=O)Cn1c(=S)[nH]c2ccccc21`, the inhibition worked out at 93.2% in assay [1] and 71% in assay [3]. Also, the IC50 at Myeloperoxidase [2] is 0.39 µM; on Myeloperoxidase [5], 82.7 µM.
Take `Cc1cccc(NC(=O)CSc2nc3ccccc3[nH]2)c1`: the figures for the inhibition in assay [1] and in assay [3] were 92.5% and 4.3%, respectively. Also, the IC50 at Myeloperoxidase [2] came to 6.41 µM.
On to `COc1ccccc1NC(=O)CSc1nc2ccccc2[nH]1`, for which the inhibition was 72.6% in assay [1] and 0% in assay [3]. Further, the IC50 at Myeloperoxidase [2] amounted to 10.4 µM.
Regarding `O=C(Cn1c(=S)[nH]c2ccccc21)N1CCOCC1`, the inhibition in assay [1] is 52.2%.
Take `O=C(Cn1c(Cl)nc2ccccc21)Nc1cccc([N+](=O)[O-])c1`: in assay [1], the inhibition was 44%.
